Publication PMC5039586, “Biofilms from Klebsiella pneumoniae: Matrix Polysaccharide Structure and Interactions with Antimicrobial Peptides” (Microorganisms, 2016)
Ends that are not written are not given here.

Columns and labels:
[1] = test system: KpTs113; experiment: Peptide uptake by flow cytometry with Trypan Blue quenching; assay type: cell-based, Klebsiella pneumoniae; conditions: KpTs113, 0.25 µM peptide, 10 min, 37 °C, 1 mg/mL TB
Description: Flow cytometric assays were performed with a Cytomics FC 500 instrument (Beckman-Coulter, Inc., Fullerton, CA, USA) equipped with an argon laser (488 nm, 5 mW) and photomultiplier tube fluorescence detectors. Filtered light wavelength was set at 610 nm for Propidium Iodide (PI) (Sigma, Saint Louis, MO, USA) detection and at 525 nm for BODIPY (BY) detection. All detectors were set on logarithmic amplification. Optical and electronic noise were eliminated by setting an electronic gating threshold on the forward scattering detector, while the flow rate was kept at a data rate below 300 events/second to avoid cell coincidence. For each sample, at least 10,000 events were acquired and stored as list mode files. For the uptake evaluation, cultures of mid-log phase bacteria, diluted to 1 × 10^6 CFU/mL in MHB, were incubated at 37 °C for 10 min with 0.25 µM Bac7(1–35)-BY; after incubation, treated bacterial cells were washed three times in buffered high salt solution (10 mM sodium phosphate, 400 mM NaCl, 10 mM MgCl2, pH 7.2) in order to remove the fraction of peptide bound to the cell surfaces, and immediately analysed by the flow cytometer with or without a 10 min pre-incubation at room temperature with 1 mg/mL of the quencher Trypan Blue (TB).

[2] = test system: ATCC 700603; assay type: cell-based, Klebsiella pneumoniae; conditions: ATCC 700603, 24 h
Description: (§1) The bacterial inoculum was incubated overnight in MHB with shaking, then diluted 1:30 in fresh MHB and incubated with shaking for approximately 2 h to the mid-log phase, before resuspending to the appropriate dose, according to the optical density (OD). Minimum inhibitory concentration (MIC) determinations were carried out in MHB on mid-log phase bacteria (1–5 × 10^5 CFU/mL, CFU: colony-forming units) as previously described.

[3] = test system: KpMn7; assay type: cell-based, Klebsiella pneumoniae; conditions: 24 h
Description: as §1

[4] = test system: KpTs101; assay type: cell-based, Klebsiella pneumoniae; conditions: 24 h
Description: as §1

[5] = test system: KpTs107; assay type: cell-based, Klebsiella pneumoniae; conditions: 24 h
Description: as §1

[6] = test system: KpTs109; assay type: cell-based, Klebsiella pneumoniae; conditions: 24 h
Description: as §1

[7] = test system: KpTs113; assay type: cell-based, Klebsiella pneumoniae; conditions: 24 h
Description: as §1

[8] = test system: KpTs12; assay type: cell-based, Klebsiella pneumoniae; conditions: 24 h
Description: as §1

[9] = test system: KpTs101 biofilm; experiment: Biofilm susceptibility assay (BIC), sessile cells on peg lids; assay type: cell-based, Klebsiella pneumoniae; conditions: sessile KpTs101, 24 h with peptide, then 6 h regrowth, OD590 < 0.05
[10] = test system: KpTs113 biofilm; experiment: as above; assay type: cell-based, Klebsiella pneumoniae; conditions: sessile KpTs113, 24 h with peptide, then 6 h regrowth, OD590 < 0.05
[11] = test system: KpTs101; assay type: cell-based, Klebsiella pneumoniae; conditions: 24 h; remark: listed apart in the source
Description: (§2) Minimum inhibitory concentration (MIC) determinations were carried out in MHB on mid-log phase bacteria (1–5 × 10^5 CFU/mL, CFU: colony-forming units) as previously described. […] Data are reported in Table 2 (Ps column) together with MIC and BIC values from Table 1 for an easy comparison. […] To further investigate this protection mechanism, we then determined if the matrix polysaccharide interacted with the helical AMP BMAP-27 by monitoring its effect on peptide structure, using circular dichroism.

[12] = test system: KpTs113; assay type: cell-based, Klebsiella pneumoniae; conditions: 24 h; remark: listed apart in the source
Description: as §2

[13] = test system: KpMn7 biofilm; conditions: 24 h
[14] = test system: ATCC 700603 biofilm; conditions: ATCC 700603, 24 h
[15] = test system: KpTs107 biofilm; conditions: 24 h
[16] = test system: KpTs12 biofilm; conditions: 24 h
[17] = test system: KpTs109 biofilm; conditions: 24 h

Substance	quenching of cell fluorescence by Trypan Blue (uptake) [1] [%]	MIC [2] [µM]	MIC [3] [µM]	MIC [4] [µM]	MIC [5] [µM]	MIC [6] [µM]	MIC [7] [µM]	MIC [8] [µM]	BIC (biofilm inhibitory concentration) [9] [µM]	BIC (biofilm inhibitory concentration) [10] [µM]	Ps, MIC in the presence of matrix polysaccharide [11] [µM]	Ps, MIC in the presence of matrix polysaccharide [12] [µM]	BIC (biofilm inhibitory concentration) [13] [µM]	BIC (biofilm inhibitory concentration) [14] [µM]	BIC (biofilm inhibitory concentration) [15] [µM]	BIC (biofilm inhibitory concentration) [16] [µM]	BIC (biofilm inhibitory concentration) [17] [µM]
Bac7(1–35)-BY: BODIPY fluorescently labelled derivative of Bac7(1–35) (RRIRPRPPRLPRPRPRPLPFPRPGPRPIPRPLPFP; also: BODIPY label, position not given here; UniProt P19661 131-165, looked up, fragment)	< 10																
GRFKRFRKKFKKLFKKLSPVIPLLHL-NH2 [BMAP-27]		4	4	2	4	4	2	4	>64	>64	64	64	64	64	>64	16	32
RRIRPRPPRLPRPRPRPLPFPRPGPRPIPRPLPFP [Bac7(1–35)]		4	4	2	4	4	2	4	64	64	32	32	32	32	16	8	32
